Experimental data reported in patent publication US20120052175A1 (priority 2010, published 2012).

Assay: Moisture sensitivity test: hydrolytic degradation of isothiocyanate in aqueous phosphate buffer
Format: physicochemical
Conditions: white mustard essential oil (about 25% 4-HBITC) suspended in aqueous phosphate buffer pH about 3.6, about 20-23° C., about 24 hours
Protocol: Supercritical fluid chromatography can be used to determine the amount of 4-hydroxybenzyl isothiocyanate in a preservative composition. First an accurately weighed amount of the preservative composition is either dissolved in a compatible solvent such as ethyl acetate or ethyl acetate and ethanol mixtures or solid preservative compositions are extracted repeatedly with ethyl acetate.
These solutions are analyzed by supercritical fluid chromatography using the method described by Buskov, S. et al., “Supercritical fluid chromatography as a method of analysis for the determination of 4-hydroxybenzylglucosinolate degradation products,” Journal of Biochemical and Biophysical Methods, Vol. 43, pp 157-174 (2000) with the following modifications. A Berger SFC 3D system equipped with a photodiode array detector (Berger Instruments Inc., Newark, Del.) is used for the analysis. […] The eluate is detected at 226 and 252 nm. […]
Moisture sensitive isothiocyanate compounds are identified by suspending the isothiocyanate containing material in an aqueous phosphate buffer (pH of about 3.6) at room temperature. […] The extraction procedure is repeated after 24 hours and the level of residual isothiocyanate compound is measured by supercritical fluid chromatography. […]

## Oc1ccc(CN=C=S)cc1 [4-hydroxybenzyl isothiocyanate]
  percent reduction in level of 4-hydroxybenzyl isothiocyanate after 24 hours: about 72%
